Results: US20240327380A1, “BTK INHIBITORS” (BIOGEN MA INC., priority 2020, published 2024)

Legend:
[1] = system: CD69 expression on CD19+ B cells in human whole blood; assay: In Vitro whole blood CD69 Assay; assay type: cell-based; settings: B-cell; human heparinized whole blood, anti-human IgD stimulation overnight, percentage of CD19+ B cells expressing CD69, flow cytometry; read-out: IC50
Protocol: In Vitro whole blood CD69 Assay
Human heparinized venous blood from health donors was aliquoted into 96-well plate and “spiked” with serial dilutions of formula I compounds in DMSO or with DMSO without drug. The final concentration of DMSO in all wells was 0.1%. The plate was incubated at 37° C. for 30 min. Drug-containing samples were stimulated with […] mouse anti-human IgD-dextran (1A62) or […] polyclonal rabbit F(ab′)2 anti-human IgD. Phosphate-buffered saline (PBS) was added to the negative control unstimulated sample and the plates were incubated overnight (18 to 22 hours) at 37° C. Cells were stained with fluorochrome-conjugated anti-CD19 and anti-CD69 antibodies. Lyse/fix solution was used to remove red blood cells by hypotonic lysis and to fix the remaining cells, which were then analyzed by flow cytometry. CD19+ B cells were gated and analyzed for CD69 expression. The percentage of B cells expressing CD69 was plotted versus the log 10 of the concentration of the drug and the best-fit curves (variable Hill slope) were generated to obtain the IC50 value.

[2] = target: T1, active BTK enzyme (Upstate 14-552) (Homo sapiens, UniProt Q06187); assay: In Vitro BTK Kinase Assay: Btk-PolyGAT-LS Assay; assay type: biochemical; settings: ATP 10 μM, polyGAT 100 nM, BTK 0.25 nM, 30 minutes, TRF readout
T1 construct: purchased Upstate 14-552
T1 sequence (Q06187 whole entry): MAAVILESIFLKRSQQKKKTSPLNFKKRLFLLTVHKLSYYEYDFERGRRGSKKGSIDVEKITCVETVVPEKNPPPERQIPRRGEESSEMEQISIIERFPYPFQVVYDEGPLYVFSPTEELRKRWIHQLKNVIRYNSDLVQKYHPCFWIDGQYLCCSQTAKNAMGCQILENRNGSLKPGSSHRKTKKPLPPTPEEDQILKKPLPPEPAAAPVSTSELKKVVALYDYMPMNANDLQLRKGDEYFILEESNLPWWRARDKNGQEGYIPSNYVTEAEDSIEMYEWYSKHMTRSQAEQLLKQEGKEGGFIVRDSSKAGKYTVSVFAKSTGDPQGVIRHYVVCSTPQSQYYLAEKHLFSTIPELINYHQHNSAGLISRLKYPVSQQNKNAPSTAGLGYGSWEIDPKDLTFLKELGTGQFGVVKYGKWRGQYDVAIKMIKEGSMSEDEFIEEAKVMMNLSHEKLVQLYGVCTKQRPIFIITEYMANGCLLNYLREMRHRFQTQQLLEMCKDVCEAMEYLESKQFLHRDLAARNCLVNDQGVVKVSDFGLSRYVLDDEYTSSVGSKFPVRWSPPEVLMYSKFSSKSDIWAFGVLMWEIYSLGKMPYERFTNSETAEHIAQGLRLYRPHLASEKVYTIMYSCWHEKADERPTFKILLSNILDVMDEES
Protocol: In Vitro BTK Kinase Assay: Btk-PolyGAT-LS Assay The purpose of the BTK in vitro assay is to determine compound potency against BTK through the measurement of IC50. Compound inhibition is measured after monitoring the amount of phosphorylation of a fluorescein-labeled polyGAT peptide (Invitrogen PV3611) in the presence of active BTK enzyme (Upstate 14-552), ATP, and inhibitor. The BTK kinase reaction was done in a black 96 well plate (costar 3694). For a typical assay, a 24 μL aliquot of a ATP/peptide master mix (final concentration; ATP 10 μM, polyGAT 100 nM) in kinase buffer (10 mM Tris-HCl pH 7.5, 10 mM MgCl2, 200 μM […], 5 mM DTT, 0.01% Triton X-100, and 0.2 mg/ml casein) is added to each well. Next, […] of a 4-fold, 40× compound titration in 100% DMSO solvent is added, followed by adding 15 μL of BTK enzyme mix in 1× kinase buffer (with a final concentration of 0.25 nM). The assay is incubated for 30 minutes before being stopped with 28 μL of a 50 mM EDTA solution. Aliquots (5 μL) of the kinase reaction are transferred to a low volume white 384 well plate (Coming 3674), and 5 μL of a 2× detection buffer (Invitrogen PV3574, with 4 nM Tb-PY20 antibody, Invitrogen PV3552) is added. The plate is covered and incubated for 45 minutes at room temperature. Time resolved fluorescence (TRF) on Molecular Devices M5 (332 nm excitation; 488 nm emission; 518 nm fluorescein emission) is measured. IC50 values are calculated using a four parameter fit with 100% enzyme activity determined from the DMSO control and 0% activity from the EDTA control.

SMILES | IC50 [1] | IC50 [2]
C=CC(=O)N1CCC[C@H](c2cnccc2-c2ccc(CNC(=O)c3cn(C(C)(C)C)nn3)c(C)c2)C1 (single isomer, unassigned) [Example 24] | > 1000 nM | 1 to 10 nM
C=CC(=O)N1CCC[C@@H](c2cnccc2-c2ccc(CNC(=O)c3noc(C4(C)CC4)n3)c(C)c2)C1 (single isomer, unassigned) [Example 28] | > 1000 nM | > 10 nM
C=CC(=O)N1CCC[C@H](c2cnccc2-c2ccc(CNC(=O)c3nc(C4(C)CC4)no3)c(C)c2)C1 (single isomer, unassigned) [Example 30] | > 1000 nM | 1 to 10 nM
C=CC(=O)N1CCC[C@H](c2cnccc2-c2ccc(CNC(=O)c3cc(C(C)(C)C)on3)c(C)c2)C1 (single isomer, unassigned) [Example 33] | > 1000 nM | 1 to 10 nM
C=CC(=O)N(C)[C@H]1CCC(=O)N(c2cnccc2-c2ccc(CNC(=O)c3nnn(C(C)(C)C)n3)c(C)c2)C1 (single isomer, unassigned) [Example 53 Peak 1] | > 1000 nM | 1 to 10 nM
C=CC(=O)N(CC)[C@@H]1CCCN(c2cnccc2-c2ccc(CNC(=O)c3cn(C(C)(C)C)nn3)c(C)c2)C1 (stereo in doubt) [Example 16, 1-(tert-butyl)-N-(4-(3-(3-(N-ethylacrylamido)piperidin-1-yl)pyridin-4-yl)-2-methylbenzyl)-1H-1,2,3-triazole-4-carboxamide] | 100 to 1000 nM | ≤ 1 nM
C=CC(=O)N(C1CC1)[C@@H]1CCCN(c2cnccc2-c2ccc(CNC(=O)c3cn(C(C)(C)C)nn3)c(C)c2)C1 (stereo in doubt) [Example 17, 1-(tert-butyl)-N-(4-(3-(3-(N-cyclopropylacrylamido)piperidin-1-yl)pyridin-4-yl)-2-methylbenzyl)-1H-1,2,3-triazole-4-carboxamide] | > 1000 nM | ≤ 1 nM
C=CC(=O)N(C)[C@@H]1CCCN(c2cnccc2-c2ccc(CNC(=O)c3noc(C(C)(C)C)n3)c(C)c2F)C1 (stereo in doubt) [Example 19, 5-(tert-butyl)-N-(3-fluoro-2-methyl-4-(3-(3-(N-methylacrylamido)piperidin-1-yl)pyridin-4-yl)benzyl)-1,2,4-oxadiazole-3-carboxamide] | 100 to 1000 nM | ≤ 1 nM
C=CC(=O)N(C)C1CCCN(c2cnccc2-c2ccc(CNC(=O)c3cn(C(C)(C)C)nn3)c(C)c2)C1 (centres unmarked) [Example 1, 1-(tert-butyl)-N-(2-methyl-4-(3-(3-(N-methylacrylamido)piperidin-1-yl)pyridin-4-yl)benzyl)-1H-1,2,3-triazole-4-carboxamide] | 100 to 1000 nM | ≤ 1 nM
C=CC(=O)N(C)C1CCN(c2cnccc2-c2ccc(CNC(=O)c3cn(C(C)(C)C)nn3)c(C)c2)C1 (centres unmarked) [Example 2, 1-(tert-butyl)-N-(2-methyl-4-(3-(3-(N-methylacrylamido)pyrrolidin-1-yl)pyridin-4-yl)benzyl)-1H-1,2,3-triazole-4-carboxamide] | 100 to 1000 nM | 1 to 10 nM
C=CC(=O)N1CCCC12CCN(c1cnccc1-c1ccc(CNC(=O)c3cn(C(C)(C)C)nn3)c(C)c1)C2 (centres unmarked) [Example 3, N-(4-(3-(1-acryloyl-1,7-diazaspiro[4.4]nonan-7-yl)pyridin-4-yl)-2-methylbenzyl)-1-(tert-butyl)-1H-1,2,3-triazole-4-carboxamide] | > 1000 nM | 1 to 10 nM
C=CC(=O)N(C)C1CCCN(c2cncnc2-c2ccc(CNC(=O)c3cn(C(C)(C)C)nn3)c(C)c2)C1 (centres unmarked) [Example 8, 1-(tert-butyl)-N-(2-methyl-4-(5-(3-(N-methylacrylamido)piperidin-1-yl)pyrimidin-4-yl)benzyl)-1H-1,2,3-triazole-4-carboxamide] | < 100 nM | ≤ 1 nM
C=CC(=O)N(C)C1CCCN(c2cnccc2-c2ccc(CNC(=O)c3noc(C(C)(C)C)n3)c(C)c2)C1 (centres unmarked) [Example 12, 5-(tert-butyl)-N-(2-methyl-4-(3-(3-(N-methylacrylamido)piperidin-1-yl)pyridin-4-yl)benzyl)-1,2,4-oxadiazole-3-carboxamide] | < 100 nM | ≤ 1 nM
C=CC(=O)N(C)C1CCCN(c2cnccc2-c2ccc(CNC(=O)c3nc(C(C)(C)C)no3)c(C)c2)C1 (centres unmarked) [Example 13, 3-(tert-butyl)-N-(2-methyl-4-(3-(3-(N-methylacrylamido)piperidin-1-yl)pyridin-4-yl)benzyl)-1,2,4-oxadiazole-5-carboxamide] | < 100 nM | ≤ 1 nM
C=CC(=O)N(C)C1CCCN(c2cnccc2-c2ccc(CNC(=O)c3cc(C(C)(C)C)on3)c(C)c2)C1 (centres unmarked) [Example 14, 5-(tert-butyl)-N-(2-methyl-4-(3-(3-(N-methylacrylamido)piperidin-1-yl)pyridin-4-yl)benzyl)isoxazole-3-carboxamide] | 100 to 1000 nM | ≤ 1 nM
C=CC(=O)N(C)[C@H]1CCCN(c2cnccc2-c2ccc(CNC(=O)c3cn(C(C)(C)C)nn3)c(C)c2)C1 [Example 15, (S)-1-(tert-butyl)-N-(2-methyl-4-(3-(3-(N-methylacrylamido)piperidin-1-yl)pyridin-4-yl)benzyl)-1H-1,2,3-triazole-4-carboxamide] | > 1000 nM | > 10 nM
C=CC(=O)N(C)C1CCCN(c2cnccc2-c2ccc(CNC(=O)c3nc(C(C)(C)C)no3)c(C)c2F)C1 (centres unmarked) [Example 18, 3-(tert-butyl)-N-(3-fluoro-2-methyl-4-(3-(3-(N-methylacrylamido)piperidin-1-yl)pyridin-4-yl)benzyl)-1,2,4-oxadiazole-5-carboxamide] | 100 to 1000 nM | ≤ 1 nM
C=CC(=O)N(C)[C@@H]1CCCN(c2cnccc2-c2ccc(CNC(=O)c3cn(C(C)(C)C)nn3)c(C)c2)C1 [Example 22, (R)-1-(tert-butyl)-N-(2-methyl-4-(3-(3-(N-methylacrylamido)piperidin-1-yl)pyridin-4-yl)benzyl)-1H-1,2,3-triazole-4-carboxamide] | < 100 nM | ≤ 1 nM
C=CC(=O)N1CCCC(c2cnccc2-c2ccc(CNC(=O)c3cn(C(C)(C)C)nn3)c(C)c2)C1 (centres unmarked) [Example 23, N-(4-(3-(1-acryloylpiperidin-3-yl)pyridin-4-yl)-2-methylbenzyl)-1-(tert-butyl)-1H-1,2,3-triazole-4-carboxamide] | > 1000 nM | 1 to 10 nM
C=CC(=O)N1CCCC(c2cnccc2-c2ccc(CNC(=O)c3noc(C4(C)CC4)n3)c(C)c2)C1 (centres unmarked) [Example 26, N-(4-(3-(1-acryloylpiperidin-3-yl)pyridin-4-yl)-2-methylbenzyl)-5-(1-methylcyclopropyl)-1,2,4-oxadiazole-3-carboxamide] | 100 to 1000 nM | 1 to 10 nM
C=CC(=O)N1CCCC(c2cnccc2-c2ccc(CNC(=O)c3nc(C4(C)CC4)no3)c(C)c2)C1 (centres unmarked) [Example 29, N-(4-(3-(1-acryloylpiperidin-3-yl)pyridin-4-yl)-2-methylbenzyl)-3-(1-methylcyclopropyl)-1,2,4-oxadiazole-5-carboxamide] | > 1000 nM | 1 to 10 nM
C=CC(=O)N1CCCC(c2cnccc2-c2ccc(CNC(=O)c3cc(C(C)(C)C)on3)c(C)c2)C1 (centres unmarked) [Example 32, N-(4-(3-(1-acryloylpiperidin-3-yl)pyridin-4-yl)-2-methylbenzyl)-5-(tert-butyl)isoxazole-3-carboxamide] | 100 to 1000 nM | 1 to 10 nM
